Data reported in patent publication US10342819B2, “Oligonucleotide having non-natural nucleotide at 5′-terminal thereof” (Kyowa Hakko Kirin Co., Ltd., priority 2014, dated 2019).

target: T1, AGO2-MID domain (Homo sapiens, UniProt Q9UKV8); assay: Biacore competition experiment of nucleotide (monomer) for the AGO2-MID domain (Test Examples 7 and 8); format: binding; conditions: Test Example 7; 2.5 μg/mL AGO2-MID domain solution containing the monomer at 100 μM; read-out: inhibition rate (%) (100 μM AGO2-MID domain solutions)
T1 construct: mixed with an equal amount of a 5 μg/mL AGO2-MID domain solution
Procedure: HBS-EP+ 10× was diluted to 10-fold with pure water, and DTT was added thereto to give a final concentration of 2 mM, followed by filtration through a filter to prepare an HBS-EP+ 2 mM DTT aqueous solution. To this solution, dimethyl sulfoxide (DMSO) was added to give a final concentration of 1%, whereby a running buffer was prepared.
A monomer solution dissolved in DMSO or distilled water was diluted to 200 μM, 40 μM, 8 μM, and 1.6 μM/(2% DMSO, HBS-EP+, 2 mM DTT), and each of the diluted solutions was mixed with an equal amount of a 5 μg/mL AGO2-MID domain solution diluted with the HBS-EP+2 mM DTT solution, whereby 2.5 μg/mL AGO2-MID domain solutions containing the monomer at 100 μM, 20 μM, 4 μM, and 0.8 μM, respectively, were prepared as the HBS-EP+, 2 mM DTT, 1% DMSO solution.
A competition experiment by the siRNA was performed using a chip immobilized dT(16)-Biotin oligo thereon in the same manner as in Test Example 6. The flow rate is set to 30 μL/minute throughout the experiment, and one cycle is performed as follows: binding for 60 seconds, dissociation for 5 seconds, and regeneration 1 M NaCl for 5 seconds.
In order to stabilize the machine, the first 10 cycles are performed by adding only HBS-EP+, and thereafter, the measurement is performed for each monomer in the order of HBS-EP+(BLANK), a 2.5 μg/mL AGO2-MID domain solution (CONTROL), and 2.5 μg/mL AGO2-MID domain solutions (Sample) containing the monomer at 100 μM, 20 μM, 4 μM, and 0.8 μM, respectively, and a 2.5 μg/mL AGO2-MID domain solution (CONTROL). In the analysis, the binding level of the graph obtained by subtracting the graph for blank immobilization from the graph for the immobilized cell is used, and the residual binding ratio (%) is calculated according to ([Sample]−[BLANK])/([CONTROL]−[BLANK])×100, and the inhibition ratio (%) is calculated according to 100−(residual binding ratio).
In Table 36, the inhibition ratios (%) of 8-Br-dA (Compound I-1) and 5-fluoro-2′-deoxyuridine monophosphate (Compound I-4), and for comparison thereof, the inhibition ratios (%) of adenosine monophosphate (AMP) and uridine monophosphate (UMP) are shown.

inhibition at 100 µM [%]	SMILES
27.1	Nc1ncnc2c1ncn2[C@@H]1O[C@H](COP(=O)(O)O)[C@@H](O)[C@H]1O [AMP, adenosine monophosphate, reference compound]
35.9	O=c1ccn([C@@H]2O[C@H](COP(=O)(O)O)[C@@H](O)[C@H]2O)c(=O)[nH]1 [UMP, uridine monophosphate, reference compound]
68.6	Nc1ncnc2c1nc(Br)n2[C@H]1C[C@H](O)[C@@H](COP(=O)(O)O)O1 [compound I-1, 8-bromo-2′-deoxyadenosine monophosphate]
42.7	O=c1[nH]c(=O)n([C@H]2C[C@H](O)[C@@H](COP(=O)(O)O)O2)cc1F [compound I-4, 5-fluoro-2′-deoxyuridine monophosphate]

same assay, conditions: Test Example 8; 2.5 μg/mL AGO2-MID domain solution containing the monomer at 100 μM; read-out: inhibition rate (%) (100 μM AGO2-MID domain solutions)

SMILES	inhibition at 100 µM [%]
COc1cc2c(=O)[nH]c(=O)n([C@@H]3O[C@H](COP(=O)(O)O)[C@@H](O)[C@H]3O)c2cc1OC [compound I-5, ((2R,3S,4R,5R)-5-(6,7-dimethoxy-2,4-dioxo-3,4-dihydroquinazolin-1(2H)-yl)-3,4-dihydroxytetrahydrofuran-2-yl)methyl phosphate]	87.4
O=c1[nH]c(=O)n([C@@H]2O[C@H](COP(=O)(O)O)[C@@H](O)[C@H]2O)c2ccc(Cl)cc12 [compound I-6, ((2R,3S,4R,5R)-5-(6-Chloro-2,4-dioxo-3,4-dihydroquinazolin-1(2H)-yl)-3,4-dihydroxytetrahydrofuran-2-yl)methyl phosphate]	70
O=c1[nH]c(=O)n([C@@H]2O[C@H](COP(=O)(O)O)[C@@H](O)[C@H]2O)c2cc(Cl)ccc12 [compound I-7, ((2R,3S,4R,5R)-5-(7-Chloro-2,4-dioxo-3,4-dihydroquinazolin-1(2H)-yl)-3,4-dihydroxytetrahydrofuran-2-yl)methyl phosphate]	71.7
O=c1[nH]c(=O)n([C@@H]2O[C@H](COP(=O)(O)O)[C@@H](O)[C@H]2O)c2cccc(Cl)c12 [compound I-8, ((2R,3S,4R,5R)-5-(5-Chloro-2,4-dioxo-3,4-dihydroquinazolin-1(2H)-yl)-3,4-dihydroxytetrahydrofuran-2-yl)methyl phosphate]	77.1
O=c1[nH]c(=O)n([C@@H]2O[C@H](COP(=O)(O)O)[C@@H](O)[C@H]2O)c2ccsc12 [compound I-9, (2R,3S,4R,5R)-5-(2,4-Dioxo-3,4-dihydrothieno[3,2-d]pyrimidin-1(2H)-yl)-3,4-dihydroxytetrahydrofuran-2-yl)methyl phosphate]	70.9
O=c1cc(I)n([C@@H]2O[C@H](COP(=O)(O)O)[C@@H](O)[C@H]2O)c(=O)[nH]1 [compound I-13, ((2R,3S,4R,5R)-5-(6-Iodo-2,4-dioxo-3,4-dihydropyrimidin-1(2H)-yl)-3,4-dihydroxytetrahydrofuran-2-yl)methyl phosphate]	63.4
O=c1[nH]c(=O)n([C@@H]2O[C@H](COP(=O)(O)O)[C@@H](O)[C@H]2O)cc1-c1ccccn1 [compound I-14, ((2R,3S,4R,5R)-5-(2,4-Dioxo-5-(pyridin-2-yl)-3,4-dihydropyrimidin-1 (2H)-yl)-3,4-dihydroxytetrahydrofuran-2-yl)methyl phosphate]	63.3
O=c1[nH]c(=O)n([C@@H]2O[C@H](COP(=O)(O)O)[C@@H](O)[C@H]2O)cc1-c1ncco1 [compound I-15, ((2R,3S,4R,5R)-3,4-Dihydroxy-5-(5-(oxazol-2-yl)-2,4-dioxo-3,4-dihydropyrimidin-1(2H)-yl)tetrahydrofuran-2-yl)methyl phosphate]	73
COc1ccc(-c2cn([C@@H]3O[C@H](COP(=O)(O)O)[C@@H](O)[C@H]3O)c(=O)[nH]c2=O)cc1 [compound I-16, ((2R,3S,4R,5R)-3,4-Dihydroxy-5-(5-(4-methoxyphenyl)-2,4-dioxo-3,4-dihydropyrimidin-1(2H)-yl)tetrahydrofuran-2-yl)methyl phosphate]	65.6
Cc1sc2c(c1C)c(=O)[nH]c(=O)n2[C@@H]1O[C@H](COP(=O)(O)O)[C@@H](O)[C@H]1O [compound I-19, ((2R,3S,4R,5R)-5-(5,6-Dimethyl-2,4-dioxo-3,4-dihydrothieno [2,3-d]pyrimidin-1 (2H)-yl)-3,4-dihydroxytetrahydrofuran-2-yl)methyl phosphate]	89.7
O=P(O)(O)OC[C@H]1O[C@@H](n2cnc3c(-c4ccc5ccccc5c4)ncnc32)[C@H](O)[C@@H]1O [compound I-21, ((2R,3S,4R,5R)-3,4-Dihydroxy-5-(6-(naphthalen-2-yl)-9H-purin-9-yl)tetrahydrofuran-2-yl)methyl phosphate]	78.2
O=c1[nH]c(=O)n([C@@H]2O[C@H](COP(=O)(O)O)[C@@H](O)[C@H]2O)c2ccc([N+](=O)[O-])cc12 [compound I-23, ((2R,3S,4R,5R)-3,4-Dihydroxy-5-(6-nitro-2,4-dioxo-3,4-dihydroquinazolin-1(2H)-yl)tetrahydrofuran-2-yl)methyl phosphate]	85.2

More lines, now with the values ahead:

inhibition at 100 µM [%]	SMILES
73.5	O=P(O)(O)OC[C@H]1O[C@@H](n2cnc3c(/C=C/c4ccccc4)ncnc32)[C@H](O)[C@@H]1O [compound I-10, ((2R,3S,4R,5R)-3,4-dihydroxy-5-(6-((E)-styryl)-9H-purin-9-yl)tetrahydrofuran-2-yl)methyl phosphate]
60.9	CN(C)c1ncnc2c1nc(Br)n2[C@@H]1O[C@H](COP(=O)(O)O)[C@@H](O)[C@H]1O [compound I-11, ((2R,3S,4R,5R)-6-(8-bromo-6-(dimethylamino)-9H-purin-9-yl)-3,4-dihydroxytetrahydrofuran-2-yl)methyl phosphate]
74.2	CN(C)c1ncnc2c1nc(C#N)n2[C@@H]1O[C@H](COP(=O)(O)O)[C@@H](O)[C@H]1O [compound I-12, ((2R,3S,4R,5R)-6-(8-cyano-6-(dimethylamino)-9H-purin-9-yl)-3,4-dihydroxytetrahydrofuran-2-yl)methyl phosphate]
97.8	O=P(O)(O)OC[C@H]1O[C@@H](n2c(Br)nc3c(/C=C/c4ccccc4)ncnc32)[C@H](O)[C@@H]1O [compound I-18, ((2R,3S,4R,5R)-5-(8-Bromo-6-((E)-styryl)-9H-purin-9-yl)-3,4-dihydroxytetrahydrofuran-2-yl)methyl phosphate]
76.9	CC(C)c1cccc(-c2ncnc3c2ncn3[C@@H]2O[C@H](COP(=O)(O)O)[C@@H](O)[C@H]2O)c1 [compound I-20, ((2R,3S,4R,5R)-3,4-dihydroxy-5-(6-(3-isopropylphenyl)-9H-purin-9-yl)tetrahydrofuran-2-yl)methyl phosphate]
91.6	O=Cc1cccc(-c2ncnc3c2ncn3[C@@H]2O[C@H](COP(=O)(O)O)[C@@H](O)[C@H]2O)c1 [compound I-22, ((2R,3S,4R,5R)-3,4-Dihydroxy-5-(6-(3-formylphenyl)-9H-purin-9-yl)tetrahydrofuran-2-yl)methyl phosphate]
88.4	Cc1c(C#N)n([C@@H]2O[C@H](COP(=O)(O)O)[C@@H](O)[C@H]2O)c(=O)[nH]c1=O [compound I-24, ((2R,3S,4R,5R)-5-(6-cyano-5-methyl-2,4-dioxo-3,4-dihydropyrimidin-1 (2H)-yl)-3,4-dihydroxytetrahydrofuran-2-yl)methyl phosphate]
33.9	O=P(O)(O)OC[C@H]1O[C@@H](n2cnc3c(-c4cccc5ccccc45)ncnc32)[C@H](O)[C@@H]1O [compound I-25, ((2R,3S,4R,5R)-3,4-Dihydroxy-5-(6-(naphthalen-1-yl)-9H-purin-9-yl)tetrahydrofuran-2-yl)methyl phosphate]

same assay, conditions: conclusion from Test Example 7

affinity for AGO2 (inhibition ratio) compared with adenosine monophosphate or uridine monophosphate	SMILES
higher affinity for AGO2	O=c1[nH]c(=O)n([C@H]2C[C@H](O)[C@@H](COP(=O)(O)O)O2)cc1F [5-fluoro-2′-deoxyuridine monophosphate]
higher affinity for AGO2	Nc1ncnc2c1nc(Br)n2[C@H]1C[C@H](O)[C@@H](COP(=O)(O)O)O1 [compound I-1, 8-bromo-2′-deoxyadenosine monophosphate]

same assay, conditions: read-out: inhibition rate (%) (100 μM AGO2-MID domain solutions)

SMILES	inhibition at 100 µM [%]
N#Cc1cc(=O)[nH]c(=O)n1[C@@H]1O[C@H](COP(=O)(O)O)[C@@H](O)[C@H]1O [compound I-17, ((2R,3S,4R,5R)-5-(6-Cyano-2,4-dioxo-3,4-dihydropyrimidin-1(2H)-yl)-3,4-dihydroxytetrahydrofuran-2-yl)methyl phosphate]	86
